Data: PubChem BioAssay AID2060507 (Molecular Pharmacology Branch, DTP, NCI, 2025)
Values joined by “and” are separate entries in the source; they are usually repeats but may differ in a detail not shown here. Identical values can stand only once. Blank lines part the entries; values can stand above or below the compound they belong to.

System: 519858-162-T-J1-PDC complex spheroid viability
Assay: Anticancer human tumor 519858-162-T-J1-PDC patient-derived colon adenocarcinoma cell line growth inhibition [GQUAD]
Settings: for viability, T/C: stronger effect = lower value
In short: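 Viability of tumor cells grown as complex spheroids with endothelial and stromal cells, exposed to drug combinations. Top concentration at or near clinical Cmax (else 10 microM), diluted in half-log increments.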
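Further: spheroids exposed to compounds for 7 days.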
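Wherever viability, T/C is given: 100% = DMSO vehicle control viability.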

SMILES: CCc1c2c(nc3ccc(O)cc13)-c1cc3c(c(=O)n1C2)COC(=O)[C@]3(O)CC + Cc1[nH]c2ccc(F)cc2c1-c1nc2c3cccnc3c3ncccc3c2[nH]1
IC50 (curve of first compound, second compound 0.0316 µM): > 316 nM | IC50 (curve of first compound, second compound 0.1 µM): > 316 nM | IC50 (curve of first compound, second compound 0.316 µM): > 316 nM | IC50 (curve of first compound, second compound 1 µM): > 316 nM | IC50 (curve of first compound, second compound 3.16 µM): > 316 nM | IC50 (curve of first compound, second compound 10 µM): < 0.999 nM | viability, T/C (second compound 0.0316 µM, first compound 0.000999 µM): 124% | viability, T/C (second compound 0.0316 µM, first compound 0.00316 µM): 86% | viability, T/C (second compound 0.0316 µM, first compound 0.00999 µM): 70.5% | viability, T/C (second compound 0.0316 µM, first compound 0.0316 µM): 86.6% | viability, T/C (second compound 0.0316 µM, first compound 0.0999 µM): 56.6% | viability, T/C (second compound 0.0316 µM, first compound 0.316 µM): 62.8% | viability, T/C (second compound 0.1 µM, first compound 0.000999 µM): 85% | viability, T/C (second compound 0.1 µM, first compound 0.00316 µM): 96.9% | viability, T/C (second compound 0.1 µM, first compound 0.00999 µM): 63.7% | viability, T/C (second compound 0.1 µM, first compound 0.0316 µM): 63.2% | viability, T/C (second compound 0.1 µM, first compound 0.0999 µM): 84.2% | viability, T/C (second compound 0.1 µM, first compound 0.316 µM): 52.9% | viability, T/C (second compound 0.316 µM, first compound 0.000999 µM): 99.9% | viability, T/C (second compound 0.316 µM, first compound 0.00316 µM): 105% | viability, T/C (second compound 0.316 µM, first compound 0.00999 µM): 60.8% | viability, T/C (second compound 0.316 µM, first compound 0.0316 µM): 53.9% | viability, T/C (second compound 0.316 µM, first compound 0.0999 µM): 63.4% | viability, T/C (second compound 0.316 µM, first compound 0.316 µM): 59.4% | viability, T/C (second compound 1 µM, first compound 0.000999 µM): 89.8% | viability, T/C (second compound 1 µM, first compound 0.00316 µM): 75.2% | viability, T/C (second compound 1 µM, first compound 0.00999 µM): 78.2% | viability, T/C (second compound 1 µM, first compound 0.0316 µM): 83.6% | viability, T/C (second compound 1 µM, first compound 0.0999 µM): 54.6% | viability, T/C (second compound 1 µM, first compound 0.316 µM): 62.8% | viability, T/C (second compound 3.16 µM, first compound 0.000999 µM): 68.5% | viability, T/C (second compound 3.16 µM, first compound 0.00316 µM): 53.3% | viability, T/C (second compound 3.16 µM, first compound 0.00999 µM): 47.8% | viability, T/C (second compound 3.16 µM, first compound 0.0316 µM): 61.1% | viability, T/C (second compound 3.16 µM, first compound 0.0999 µM): 80% | viability, T/C (second compound 3.16 µM, first compound 0.316 µM): 49.9% | viability, T/C (second compound 10 µM, first compound 0.000999 µM): 39.9% | viability, T/C (second compound 10 µM, first compound 0.00316 µM): 50.2% | viability, T/C (second compound 10 µM, first compound 0.00999 µM): 69.7% | viability, T/C (second compound 10 µM, first compound 0.0316 µM): 56.6% | viability, T/C (second compound 10 µM, first compound 0.0999 µM): 74.5% | viability, T/C (second compound 10 µM, first compound 0.316 µM): 76.2%

IC50 (curve of compound): > 10000 nM
SMILES: O=C(c1cc(Cc2n[nH]c(=O)c3ccccc23)ccc1F)N1CCN(C(=O)C2CC2)CC1
viability, T/C (compound 0.0316 µM): 86.5% and 87.2% | viability, T/C (compound 0.1 µM): 88.4% and 82.1% | viability, T/C (compound 0.316 µM): 115% and 95.4% | viability, T/C (compound 1 µM): 102% and 79.3% | viability, T/C (compound 3.16 µM): 86.3% and 93% | viability, T/C (compound 10 µM): 103% and 69.9%
